The values below are quoted from earlier work in article PMC4237557 (Diabetes, Obesity & Metabolism, 2014).

The test system of data set [1] is insulin-like growth factor 1 receptor (IGF-1R). The settings on record: in vitro.
The conditions of data set [2]: in vitro.

Consider “21^A-Gly-des-30^B-Thr-human insulin [M2]”, for which the “Affinity for IGF-1R compared with human insulin” value in data set [1] is recorded as “lower affinity”.
As for 21^A-Gly-human insulin [M1], the “Glucose-lowering potency compared with parent glargine (M0)” value was “equal glucose-lowering potency”. The “Affinity for IGF-1R compared with human insulin” value in data set [1] is “lower affinity”. The “Mitogenicity compared with endogenous human insulin” value in data set [2] is listed as “does not exhibit an increased affinity for IGF-1R or increased mitogenicity”.
